Here are results for 40 compounds from patent publication US20080287445A1, “Prokineticin 2 receptor antagonists” (priority 2005, published 2008).

The assay deals with T1, GPR73 (prokineticin 1 receptor) (Homo sapiens, UniProt Q8TCW9).
T1 construct: expressed in transfected cells; host or cells: HEK 293
Put plainly: PK1 functional assay: Ca2+ mobilization screening for PK1 antagonists on the FLIPR. The format is cell-based. The settings on record: HEK 293 GPR73 cells, multiple values = multiple testing; for inhibition at 10 µM: HEK293, 10 μM compound, read-out: Ca^2+ Mobilization % Inh @ 10 μM; for IC50: PK1 ligand preparation at its EC50, read-out: Ca^2+ Mobilization IC50; for Ca^2+ Mobilization % Inh @ 10 μM: 10 μM compound. The protocol:
At a time of 24 h prior to running the assay, in cell culture media (DMEM containing high Glucose and L-glutamine, 10% FBS, 1% Pen/Streptomycin, 1% Sodium Pyruvate, 20 mM HEPES, Zeocin 200 mg/L), 100 μL of 1.3*10^6/ml HEK 293 GPR73 (prokineticin 1 receptor) expressing cells were plated in a 96 well poly-d-lysine coated plate (Costar), and incubated at 37 C and 5% CO2. On the day in which the assay was run, the media was removed and 200 μL of 5× Calcium Plus Dye (Molecular Devices) which was previously resuspended with 200 mL of assay buffer [HBSS w/Ca^2+ and Mg^2+ w/o phenol red, 20 mM HEPES, 0.1% BSA, 10 mL probenecid (710 mg probenecid in 5 mL of 1N NaOH, to which was then added 5 mL HBSS containing 20 mM HEPES)] was added to each well of the 96-well plate. The plate was incubated at 37 C and 5% CO2 for 30 min in dark. The plate was removed and allowed to reach RT for 15 min in the dark. The assay was then run on the FLIPR. In Brief: base line read for 1 min, compound added (25 μL) and incubated for 4 min, 15 seconds, PK1 ligand preparation added (25 μL) for a final concentration of a previously determined EC50 and fluorescence was counted for 1 min, 45 seconds. Baseline is described as the amount of relative fluorescence read when buffer alone is added to cells. Baseline was subtracted from all wells. Percent of control was calculated as follows:
(Baseline subtracted well value is divided by baseline subtracted max value)*100. Percent inhibition is 100 minus the percent of control value.
The IC50 is defined as the amount of a given compound required to inhibit 50% of the maximum signal that is generated by the concentration of PK1 preparation used in our assay. IC50 values were calculated using GraphPad Prism.

Where “and” joins values, the source holds several entries; their conditions need not be identical. Equal entries are not always repeated.

T1 sequence (Q8TCW9 whole entry, species assumed): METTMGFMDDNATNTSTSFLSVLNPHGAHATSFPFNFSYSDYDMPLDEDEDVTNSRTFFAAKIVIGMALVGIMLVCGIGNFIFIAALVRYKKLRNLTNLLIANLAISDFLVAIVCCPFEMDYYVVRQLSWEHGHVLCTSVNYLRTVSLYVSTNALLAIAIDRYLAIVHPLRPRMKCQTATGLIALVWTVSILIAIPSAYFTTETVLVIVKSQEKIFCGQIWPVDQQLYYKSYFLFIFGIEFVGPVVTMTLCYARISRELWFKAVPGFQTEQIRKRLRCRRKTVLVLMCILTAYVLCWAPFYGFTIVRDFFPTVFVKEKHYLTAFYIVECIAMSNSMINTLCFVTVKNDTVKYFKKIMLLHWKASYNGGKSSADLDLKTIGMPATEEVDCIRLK

For the compound `COc1ccc(Cn2c(SCc3cccnc3N)cc(=O)n(Cc3ccc(OC)cc3)c2=O)cc1` [Cpd 249], the inhibition at 10 µM is 90% and the IC50 was found to be 194 nM.
`COc1ccc(Cn2c(=O)nc(NCc3cccnc3N)n(Cc3ccccc3C#N)c2=O)cc1` [Cpd 88]: the inhibition at 10 µM was found to be 41% and the IC50 is greater than 10000 nM.
On the same counts, the results for `Cc1cc(C)c(CNc2nc(=O)n(Cc3ccc4c(c3)nnn4C)c(=O)n2Cc2ccc3c(c2)CCO3)cn1` [Cpd 245] are 45% and greater than 10000 nM.
On the same counts, the results for `Cc1cc(C)c(CNc2nc(=O)n(CCOc3ccc(F)cc3)c(=O)n2Cc2ccc(OC(F)F)cc2)cn1` [Cpd 167] are 65% and 2620 nM.
On the same counts, the results for `COc1ccc(Cn2c(NCc3cccnc3N)nc(=O)n(Cc3ccc(SC)cc3)c2=O)cc1` [Cpd 24] are 60% and 115 nM.
For `COc1ccc(Cn2c(=O)nc(NCc3cccnc3N)n(Cc3cccc4[nH]ccc34)c2=O)cc1` [Cpd 138], the “Ca^2+ Mobilization % Inh @ 10 μM” value turned out to be 73%; the inhibition at 10 µM came out at 61%; the IC50 was 1510 nM and 2700 nM.
Turning to `Cc1cc(C)c(CNc2nc(=O)n(Cc3ccc(-c4csnn4)cc3)c(=O)n2Cc2ccc(OC(F)F)cc2)cn1` [Cpd 168], the inhibition at 10 µM worked out at 68% and the IC50 was determined as 1520 nM.
On the same counts, the results for `COc1ccc(CCn2c(NCc3cccnc3N)nc(=O)n(Cc3ccc(OC)cc3)c2=O)cc1` [Cpd 94] are 91% and 373 nM.
As to `COc1ccc(Cn2c(NCc3cnc(C)cc3C)cc(=O)n(Cc3ccc(OC)cc3)c2=O)cc1` [Cpd 61], the “Ca^2+ Mobilization % Inh @ 10 μM” value was determined as 101% and the inhibition at 10 µM came to 87%.
With `COc1ccc(Cn2c(OCc3ccnc(N)n3)cc(=O)n(Cc3ccc(OC)cc3)c2=O)cc1` [Cpd 232], the inhibition at 10 µM amounted to 33% and the IC50 is greater than 10000 nM.
On the same counts, the results for `COc1ccc(Cn2c(NCc3cccnc3NC3CCCCC3)nc(=O)n(Cc3ccc(F)cc3)c2=O)cc1` [Cpd 31] are 91% and 939 nM.
On to `COc1ccc(Cn2c(=O)nc(NCc3cnc(C)cc3C)n(Cc3cccc4[nH]ccc34)c2=O)cc1` [Cpd 139], for which the “Ca^2+ Mobilization % Inh @ 10 μM” value is 97% and 100%; the inhibition at 10 µM is 92%.
Consider `COc1ccc(Cn2c(NCc3cnc(C)cc3C)nc(=O)n(Cc3cccc(OC)c3)c2=O)cc1` [Cpd 111], for which the inhibition at 10 µM was determined as 57% and the IC50 came out at 7880 nM.
For `COc1ccc(Cn2c(NCc3cnc(C)cc3C)nc(=O)n(Cc3ccc([N+](=O)[O-])cc3)c2=O)cc1` [Cpd 108], the inhibition at 10 µM is 42% and the IC50 is greater than 10000 nM.
On the same counts, the results for `COc1ccc(Cn2c(=O)nc(NCc3cccnc3N)n(Cc3ccc4occc4c3)c2=O)cc1` [Cpd 126] are 89% and 232 nM.
`COc1ccc(Cn2c(=O)nc(NCc3cnc(C)cc3C)n(Cc3ccc(OC)c(F)c3)c2=O)cc1` [Cpd 204]: the inhibition at 10 µM was determined as 102% and the IC50 is 68 nM.
On the same counts, the results for `COCCCCCn1c(=O)nc(NCc2cnc(C)cc2C)n(Cc2ccc(OC)cc2)c1=O` [Cpd 197] are 54% and 2840 nM.
On the same counts, the results for `COc1ccc(Cn2c(NCc3ncccc3C(F)(F)F)nc(=O)n(Cc3ccc(OC)cc3)c2=O)cc1` [Cpd 236] are 64% and 1270 nM.
On the same counts, the results for `COc1ccc(Cn2c(NCc3cccc(N)n3)nc(=O)n(Cc3ccc(OC)cc3)c2=O)cc1` [Cpd 115, 6-[(6-Amino-pyridin-2-ylmethyl)-amino]-1,3-bis-(4-methoxy-benzyl)-1H-[1,3,5]triazine-2,4-dione] are 98% and 244 nM.
`COc1ccc(Cn2c(NCCc3ccncc3)nc(=O)n(Cc3ccc(OC)cc3)c2=O)cc1` [Cpd 215]: the “Ca^2+ Mobilization % Inh @ 10 μM” value was 104% and 68%; the IC50 is 500 nM and 2780 nM.
Turning to `COc1ccc(Cn2c(NCc3cnc(C)cc3C)nc(=O)n(Cc3ccc(OC)cc3)c2=O)cc1` [Cpd 22, 6-[(4,6-Dimethyl-pyridin-3-ylmethyl)-amino]-1,3-bis-(4-methoxy-benzyl)-1H-[1,3,5]triazine-2,4-dione], the “Ca^2+ Mobilization % Inh @ 10 μM” value is 96% and 97%; the inhibition at 10 µM turned out to be 88%.
In the case of `CSc1ccc(Cn2c(=O)nc(NCc3cnc(C)cc3C)n(Cc3ccc(OC(F)F)cc3)c2=O)cc1` [Cpd 177], the inhibition at 10 µM came to 79% and the IC50 worked out at 640 nM.
On the same counts, the results for `COc1ccc(Cn2c(NCc3cnc(C)cc3C)nc(=O)n(Cc3ccc(F)cc3)c2=O)cc1` [Cpd 60] are 88% and 350 nM.
On the same counts, the results for `COc1ccc(Cn2c(=O)nc(NCc3cccnc3N)n(Cc3ccc(Cl)c(Cl)c3)c2=O)cc1` [Cpd 151] are 60% and 2400 nM.
On the same counts, the results for `COc1ccc(Cn2c(NCc3cccnc3N)nc(=O)n(Cc3cc4ccccc4o3)c2=O)cc1` [Cpd 23] are 97% and 231 nM.
With `COc1ccc(Cn2c(NCc3cccnc3N3CCOCC3)nc(=O)n(Cc3ccc(OC)cc3)c2=O)cc1` [Cpd 20], the inhibition at 10 µM was determined as 95% and the IC50 was determined as 177 nM.
On the same counts, the results for `COCCCCCn1c(=O)nc(NCc2c(C)cc(C)nc2N)n(Cc2ccc(OC)cc2)c1=O` [Cpd 252, 6-[(2-Amino-4,6-dimethyl-pyridin-3-ylmethyl)-amino]-1-(4-methoxy-benzyl)-3-(5-methoxy-pentyl)-1H-[1,3,5]triazine-2,4-dione] are 71% and 1350 nM.
On the same counts, the results for `COc1ccc(Cn2c(=O)nc(NCc3cccnc3N)n(Cc3ccc(OC)c([N+](=O)[O-])c3)c2=O)cc1` [Cpd 137] are 68% and 1040 nM.
Turning to `COc1ccc(Cn2c(NCc3cnc(C)cc3C)nc(=O)n(Cc3ccc4c(c3)nnn4C)c2=O)cc1` [Cpd 216], the inhibition at 10 µM came out at 80% and the IC50 came to 1060 nM.
On the same counts, the results for `COc1ccc(Cn2c(=O)nc(NCc3cccnc3N)n(Cc3ccc4cc[nH]c4c3)c2=O)cc1` [Cpd 170] are 96% and 32 nM.
On the same counts, the results for `COc1ccc(Cn2c(NCc3cccn4ccnc34)nc(=O)n(Cc3ccc(OC)cc3)c2=O)cc1` [Cpd 188, 6-[(Imidazo[1,2-a]pyridin-8-ylmethyl)-amino]-1,3-bis-(4-methoxy-benzyl)-1H-[1,3,5]triazine-2,4-dione] are 66% and 579 nM.
With `Cc1cc(C)c(CNc2nc(=O)n(Cc3ccc4c(c3)nnn4C)c(=O)n2Cc2ccc(OC(F)F)cc2)cn1` [Cpd 192], the “Ca^2+ Mobilization % Inh @ 10 μM” value amounted to 82%; the inhibition at 10 µM was determined as 80%; the IC50 is 146 nM and 1060 nM.
For `COc1ccc(Cn2c(=O)nc(NCc3c(C)cc(C)nc3N)n(Cc3cccc4[nH]ccc34)c2=O)cc1` [Cpd 155, 6-[(2-Amino-4,6-dimethyl-pyridin-3-ylmethyl)-amino]-1-(1H-indol-4-ylmethyl)-3-(4-methoxy-benzyl)-1H-[1,3,5]triazine-2,4-dione], the “Ca^2+ Mobilization % Inh @ 10 μM” value is recorded as 100%; the inhibition at 10 µM amounted to 98%; the IC50 is 2 nM and 7 nM.
Take `COc1ccc(Cn2c(NCc3cccnc3N)nc(=O)n(Cc3ccc(-n4cccn4)cc3)c2=O)cc1` [Cpd 90]: the inhibition at 10 µM was 71% and the half-inhibitory concentration (IC50) is 2330 nM.
With `COc1ccc(Cn2c(NCc3cccnc3N)nc(=O)n(Cc3ccc(C#N)cc3)c2=O)cc1` [Cpd 44], the inhibition at 10 µM came out at 66% and the IC50 came out at 2020 nM.
Regarding `COc1ccc(Cn2c(NCc3cnc(C)cc3C)nc(=O)n(Cc3ccc(C(F)(F)F)cc3)c2=O)cc1` [Cpd 110], the inhibition at 10 µM stood at 48% and the half-inhibitory concentration (IC50) worked out at 9070 nM.
With `COc1ccc(Cn2c(NCCc3ccccn3)nc(=O)n(Cc3ccc(OC)cc3)c2=O)cc1` [Cpd 154], the “Ca^2+ Mobilization % Inh @ 10 μM” value was 80%; the inhibition at 10 µM came to 79%; the IC50 was 657 nM and 952 nM.
For `COc1ccc(Cn2c(NCCc3cccnc3N)nc(=O)n(Cc3ccc(F)cc3)c2=O)cc1` [Cpd 10], the inhibition at 10 µM was 82% and the IC50 turned out to be 1250 nM.
Turning to `COc1ccc(Cn2c(=O)nc(NCc3cccnc3N)n(Cc3ccccc3OC(F)(F)F)c2=O)cc1` [Cpd 87], the inhibition at 10 µM was 53% and the concentration for half-maximal inhibition (IC50) is greater than 10000 nM.
On the same counts, the results for `COC(=O)c1cccc(Cn2c(NCc3cccnc3N)nc(=O)n(Cc3ccc(OC)cc3)c2=O)c1` [Cpd 93] are 96% and 116 nM.
